# Measurements taken from ChEMBL document CHEMBL6109042, “Metabologenomics-Driven Discovery of Nocardimicins from a Psychrophilic Nocardia sp. Strain” (J Nat Prod, 2025).
# Test system: HeLa
# Experiment: Cytotoxicity against human HeLa cells
# Format: functional, cell-based
row,Structure (SMILES),IC50
1,CCCCCCCCCCCCC/C=C\CCC(OC(=O)[C@H](CCCCN(O)C=O)NC(=O)[C@H]1N=C(c2ccccc2O)O[C@@H]1C)C(C)C(=O)N[C@@H]1CCCCN(O)C1=O (stereo partly drawn),16.7 µM
2,CCCCCCCCCCCCCCCCCC(OC(=O)[C@H](CCCCN(O)C=O)NC(=O)[C@H]1N=C(c2ccccc2O)O[C@@H]1C)C(C)C(=O)N[C@@H]1CCCCN(O)C1=O (stereo partly drawn),16.7 µM
3,CCCCCCCCCCCCCCCC(OC(=O)[C@H](CCCCN(O)C=O)NC(=O)[C@H]1N=C(c2ccccc2O)O[C@@H]1C)C(C)C(=O)N[C@@H]1CCCCN(O)C1=O (stereo partly drawn),16.7 µM
